The values below come from paper PMC7226602, “Exploring Biased Agonism at FPR1 as a Means to Encode Danger Sensing” (Cells, 2020).

Where a SMILES comes first, the peptide text is derived from it. Where no end group is shown, it is not given here. The star is where a group is joined. For = O=C*

Data set [1] concerns the target T1, human FPR1 (Homo sapiens, UniProt P21462).
T1 construct: expressed in transfected cells
T1 sequence (P21462 1-350): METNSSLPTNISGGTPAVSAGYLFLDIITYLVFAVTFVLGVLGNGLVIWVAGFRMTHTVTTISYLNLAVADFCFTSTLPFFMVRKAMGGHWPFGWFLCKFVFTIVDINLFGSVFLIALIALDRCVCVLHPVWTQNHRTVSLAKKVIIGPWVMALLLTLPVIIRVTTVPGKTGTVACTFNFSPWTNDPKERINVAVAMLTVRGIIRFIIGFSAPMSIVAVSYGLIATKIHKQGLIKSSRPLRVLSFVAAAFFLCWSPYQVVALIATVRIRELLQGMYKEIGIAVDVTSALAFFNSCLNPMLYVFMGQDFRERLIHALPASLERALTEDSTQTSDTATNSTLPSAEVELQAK
The data set is described as follows: cell-based.

In data set [2] the target is T1, human FPR1. The data set is described as follows: HTRF-based quantification of MAPK/ERK phosphorylation (ERK1/2 Thr202/Tyr204). The format is cell-based. As to conditions: HeLa-FPR1 cells serum-starved 2 h, agonist 5 min, 37 °C, HTRF phospho-ERK1/2, four-parameter fit, Hill 1, mean and SEM, at least 5 independent measurements; for EC50: read-out: ERK1/2 Activation logEC50 (converted).

Data set [3] concerns the target T1, human FPR1. Kind of data set: Flow cytometric analysis of agonist-induced receptor internalization. The format is cell-based. The conditions noted are these: HeLa-FPR1 cells; for EC50: agonist 15 min, 37 °C, flow cytometry of surface FLAG-FPR1 (M1 antibody), mean and SEM, 6 independent measurements, NR = no response, read-out: Internalization logEC50 (converted). (In general: A flow cytometer gives signals particle by particle.)

For data set [4] the following is noted: solvent DMSO; as indicated by the manufacturer; ref manufacturer; cited from earlier work.
Data set [5] addresses human formyl peptide receptor 1 (FPR1), N-terminally FLAG-tagged (human) (UniProt P21462).

`COc1cc(/C=N/NC(=O)c2ccc3c(c2)OCO3)ccc1OCc1ccccc1` [FPRA14]: the “cAMP Formation logEC50” value on human FPR1 [1] (HeLa-FPR1 cells, 5 µM forskolin + 500 µM IBMX with agonist, 30 min, 37 °C, HTRF, […], mean and SEM, at least 7 independent measurements) is −5.94 0.19. The “ERK1/2 Activation logEC50” value on human FPR1 [2] was −6.06 0.05. In addition, the “agonist-induced FPR1 internalization (decrease of cell surface-associated FPR1 pool), in words” value at human FPR1 [3] (15 min after agonist addition, flow cytometry) was “did not elicit detectable internalization”. Further, in data set [4], the Solubility – broadly, the concentration that dissolves in the medium under given conditions – is given as 100 mM.
Take `CSCC[C@H](NC=O)C(=O)N[C@@H](CCSC)C(=O)N[C@@H](Cc1ccc(O)cc1)C(=O)N[C@@H](C)C(=O)N[C@@H](CC(C)C)C(=O)N[C@@H](Cc1ccccc1)C(=O)O` [MT-ND6] (For-MMYALF-OH): the EC50 on human FPR1 [1] is 74.1 nM; on human FPR1 [2], 0.00219 µM; at human FPR1 [3], 776 nM.
The matching figures for `CC[C@H](C)[C@H](NC(=O)[C@H](CCSC)NC=O)C(=O)N[C@H](C(=O)N[C@H](C(=O)N[C@@H](CC(C)C)C(=O)O)[C@@H](C)CC)C(C)C` [fMIVIL] (For-MIVIL-OH): 0.871 nM, 0.00155 µM and 79.4 nM.
In the case of `CC(C)C[C@H](NC(=O)CN)C(=O)N[C@@H](CC(C)C)C(=O)N[C@@H](Cc1c[nH]c2ccccc12)C(=O)N[C@H](C(=O)N[C@@H](CCC(=O)O)C(=O)N[C@H](C(=O)NCC(=O)NCC(=O)N[C@@H](CCC(=O)O)C(=O)NCC(=O)N1CCC[C@H]1C(=O)NCC(=O)N1CCC[C@H]1C(=O)N[C@H](C(=O)O)[C@@H](C)O)C(C)C)C(C)C` [gG2p20] (H-GLLWVEVGGEGPGPT-OH), the EC50 on human FPR1 [1] (HeLa-FPR1 cells, 5 µM forskolin + 500 µM IBMX with agonist, 30 min, 37 °C, HTRF, […], mean and SEM, at least 7 independent measurements, read-out: cAMP Formation logEC50 (converted)) is 437 nM; at human FPR1 [2] it was 0.708 µM. The Solubility in data set [4] is 2 mg/mL.
Turning to `CC[C@H](C)[C@H](NC(=O)[C@H](CC(C)C)NC(=O)[C@H](CCCCN)NC(=O)[C@H](CCSC)NC(=O)[C@H](CC(C)C)NC(=O)[C@@H]1CCCN1C(=O)[C@H](CC(N)=O)NC(=O)[C@@H](NC(=O)[C@H](CCCCN)NC(=O)[C@H](CCCNC(=N)N)NC(=O)[C@H](CCSC)NC(=O)[C@@H]1CCCN1C(=O)[C@@H](NC(=O)[C@H](CCSC)NC=O)[C@@H](C)O)[C@@H](C)O)C(=O)N[C@@H](CC(N)=O)C(=O)O` [CYTB] (For-MTPMRKTNPLMKLIN-OH), the EC50 was 3020 nM at human FPR1 [1] and 7.76 µM at human FPR1 [2].
On the same counts, the results for `CC[C@H](C)[C@H](NC(=O)[C@H](Cc1ccccc1)NC(=O)[C@H](Cc1c[nH]c2ccccc12)NC(=O)[C@H](C)NC(=O)[C@H](CCC(N)=O)NC(=O)[C@H](CCCCN)NC(=O)[C@H](CC(C)C)NC(=O)[C@H](Cc1ccccc1)NC(=O)[C@H](CCC(=O)O)NC(=O)[C@H](CO)NC(=O)[C@@H](NC(=O)[C@H](CCSC)NC(=O)[C@H](C)NC(C)=O)C(C)C)C(=O)N[C@@H](CCC(=O)O)C(=O)N[C@@H](CC(N)=O)C(=O)N[C@@H](CCC(=O)O)C(=O)N[C@@H](CCC(=O)O)C(=O)N[C@@H](CCC(N)=O)C(=O)N[C@@H](CCC(=O)O)C(=O)N[C@@H](Cc1ccc(O)cc1)C(=O)N[C@H](C(=O)N[C@@H](CCC(N)=O)C(=O)N[C@H](C(=O)N[C@H](C(=O)N[C@@H](CCCCN)C(=O)O)C(C)C)[C@@H](C)O)C(C)C` [Ac2-26] (Ac-AMVSEFLKQAWFIENEEQEYVQTVK-OH) are 49000 nM and 74.1 µM.
`CSCC[C@H](NC=O)C(=O)N[C@@H](CC(N)=O)C(=O)N1CCC[C@H]1C(=O)N[C@@H](CC(C)C)C(=O)N[C@@H](C)C(=O)N[C@@H](CCC(N)=O)C(=O)O` [MT-ND2] (For-MNPLAQ-OH): the EC50 at human FPR1 [1] is 2040 nM; on human FPR1 [2], 6.17 µM.
With `CSCC[C@H](NC=O)C(=O)N[C@@H](CC(C)C)C(=O)N[C@@H](Cc1ccccc1)C(=O)O` [fMLF, formyl-methionyl-leucyl-phenylalanine], the Solubility in data set [4] was 4 mg/mL.
In data set [5], Ac-AMVSEFLKQAWFIENEEQEYVQTVK [acetylated peptide Ac2-26 corresponding to the N-terminus of human annexin A1] yielded an EmaxA of inhibition of forskolin-induced cAMP formation, HeLa-FPR1 cells (HTRF, 30 min; normalised to forskolin) (fraction of the maximum system response) of 0.63 and a logEC50 of inhibition of forskolin-induced cAMP formation, HeLa-FPR1 cells (HTRF, 30 min) (log M (unit not given)) of -4.31.
On the same counts, the results for GLLWVEVGGEGPGPT (not fully specified) [gG-2p20 peptide derived from the secreted glycoprotein sgG-2 of herpes simplex virus type 2 (HSV-2)] are 0.68 and -6.36.
The matching figures for For-MNPLAQ: 0.63 and -5.69.
In data set [5], For-MMYALF came in with an EmaxA of agonist-induced FPR1 internalization, HeLa-FPR1 cells (flow cytometry, 15 min; normalised to 10^-4 M W-peptide) (fraction of the maximum system response) of 0.63; an EmaxA of inhibition of forskolin-induced cAMP formation, HeLa-FPR1 cells (HTRF, 30 min; normalised to forskolin) (fraction of the maximum system response) of 0.66; a logEC50 of agonist-induced FPR1 internalization, HeLa-FPR1 cells (flow cytometry, 15 min) (log M (unit not given)) of -6.11; a logEC50 of inhibition of forskolin-induced cAMP formation, HeLa-FPR1 cells (HTRF, 30 min) (log M (unit not given)) of -7.13.
Consider For-MTPMRKTNPLMKLIN [formylated peptide corresponding to the N-terminus of human cytochrome b (CYTB; f…)], for which, in data set [5], the EmaxA of inhibition of forskolin-induced cAMP formation, HeLa-FPR1 cells (HTRF, 30 min; normalised to forskolin) (fraction of the maximum system response) was 0.39 and the logEC50 of inhibition of forskolin-induced cAMP formation, HeLa-FPR1 cells (HTRF, 30 min) (log M (unit not given)) is -5.52.
Consider WKYMVM [synthetic agonist W-peptide (WKYMVm)], for which, in data set [5], the EmaxA of agonist-induced FPR1 internalization, HeLa-FPR1 cells (flow cytometry, 15 min; normalised to 10^-4 M W-peptide) (fraction of the maximum system response) turned out to be 1; the EmaxA of inhibition of forskolin-induced cAMP formation, HeLa-FPR1 cells (HTRF, 30 min; normalised to forskolin) (fraction of the maximum system response) is 0.82; the logEC50 of agonist-induced FPR1 internalization, HeLa-FPR1 cells (flow cytometry, 15 min) (log M (unit not given)) was -7.66; the logEC50 of inhibition of forskolin-induced cAMP formation, HeLa-FPR1 cells (HTRF, 30 min) (log M (unit not given)) is -8.96.
In data set [5], For-MIVIL [formylated pentapeptide fMIVIL from Listeria monocytogenes] gave an EmaxA of agonist-induced FPR1 internalization, HeLa-FPR1 cells (flow cytometry, 15 min; normalised to 10^-4 M W-peptide) (fraction of the maximum system response) of 0.97; an EmaxA of inhibition of forskolin-induced cAMP formation, HeLa-FPR1 cells (HTRF, 30 min; normalised to forskolin) (fraction of the maximum system response) of 0.82; a logEC50 of agonist-induced FPR1 internalization, HeLa-FPR1 cells (flow cytometry, 15 min) (log M (unit not given)) of -7.1; a logEC50 of inhibition of forskolin-induced cAMP formation, HeLa-FPR1 cells (HTRF, 30 min) (log M (unit not given)) of -9.06.
